Earlier results, collected in patent US20050038042A1, “Modified release composition comprising a short-acting hypnotic for treatment of sleep disorders” (priority 2002, published 2005).

What was measured:
[1] = in humans
[2] = compared with marketed benzodiazepines

CCN(C(C)=O)c1cccc(-c2ccnc3c(C#N)cnn23)c1 [Zaleplon, N-[3-(3-cyanopyrazolo[1,5-a]pyrimidin-7-yl)phenyl]-N-ethylacetamide]
effect on sleep onset (clinical trials): effective in shortening sleep onset
safety profile (clinical trials, versus previously available benzodiazepine or nonbenzodiazepine hypnotics): more favorable safety profile
period over which decreased time to sleep onset was shown (controlled clinical studies): up to 28 days
mean duration of effect (human, in vivo): 4 to 5 h
total sleep time / number of awakenings (patients with sleep disorders): not been shown to consistently increase total sleep time or decrease the number of awakenings
time to maximum plasma concentration (tmax) [1]: 48 min
effects in animal models [2]: sedative, anxiolytic, myorelaxant, and anticonvulsive effects similar to those of marketed benzodiazepines
